Square brackets hold non-standard residues; d marks the D form.
Legend:
αvβ3 = details: cited from earlier work
[1] = target: integrin αvβ3 (Homo sapiens) (UniProt P06756); details: cited from earlier work
[2] = target: T1, DNA:PNA-D5 (15 c(RGDfK) ligands) (also: 15 copies conjugated via PEG/squarate linker to LKγ-PNA:DNA scaffold); test: 125I-echistatin competitive displacement on C32 cells
T1 chain: cyclo(RGD[dF]K)

Question: With Echistatin as the molecule, how does the “echistatin association constant for binding to αvβ3 integrin” value (αvβ3; published value, fixed in the fit) read?
Answer: Its value is 3.33e+09 M.

Question: And the Kd (αvβ3; read-out: Kd of echistatin for αvβ3)?
Answer: Its Kd is 0.3 nM.

Question: With echistatin (from UniProt P17347) as the molecule, how does the Kd [1] read?
Answer: The Kd was 0.3 nM.

B1: integrin αvβ3 (protein)
chain 1: FNLDVDSPAEYSGPEGSYFGFAVDFFVPSASSRMFLLVGAPKANTTQPGIVEGGQVLKCDWSSTRRCQPIEFDATGNRDYAKDDPLEFKSHQWFGASVRSKQDKILACAPLYHWRTEMKQEREPVGTCFLQDGTKTVEYAPCRSQDIDADGQGFCQGGFSIDFTKADRVLLGGPGSFYWQGQLISDQVAEIVSKYDPNVYSIKYNNQLATRTAQAIFDDSYLGYSVAVGDFNGDGIDDFVSGVPRAARTLGMVYIYDGKNMSSLYNFTGEQMAAYFGFSVAATDINGDDYADVFIGAPLFMDRGSDGKLQEVGQVSVSLQRASGDFQTTKLNGFEVFARFGSAIAPLGDLDQDGFNDIAIAAPYGGEDKKGIVYIFNGRSTGLNAVPSQILEGQWAARSMPPSFGYSMKGATDIDKNGYPDLIVGAFGVDRAILYRARPVITVNAGLEVYPSILNQDNKTCSLPGTALKVSCFNVRFCLKADGKGVLPRKLNFQVELLLDKLKQKGAIRRALFLYSRSPSHSKNMTISRGGLMQCEELIAYLRDESEFRDKLTPITIFMEYRLDYRTAADTTGLQPILNQFTPANISRQAHILLDCGEDNVCKPKLEVSVDSDQKKIYIGDDNPLTLIVKAQNQGEGAYEAELIVSIPLQADFIGVVRNNEALARLSCAFKTENQTRQVVCDLGNPMKAGTQLLAGLRFSVHQQSEMDTSVKFDLQIQSSNLFDKVSPVVSHKVDLAVLAAVEIRGVSSPDHVFLPIPNWEHKENPETEEDVGPVVQHIYELRNNGPSSFSKAMLHLQWPYKYNNNTLLYILHYDIDGPMNCTSDMEINPLRIKISSLQTTEKNDTVAGQGERDHLITKRDLALSEGDIHTLGCGVAQCLKIVCQVGRLDRGKSAILYVKSLLWTETFMNKENQNHSYSLKSSASFNVIEFPYKNLPIEDITNSTLVTTNVTWGIQPAPMPV
chain 2: GPNICTTRGVSSCQQCLAVSPMCAWCSDEALPLGSPRCDLKENLLKDNCAPESIEFPVSEARVLEDRPLSDKGSGDSSQVTQVSPQRIALRLRPDDSKNFSIQVRQVEDYPVDIYYLMDLSYSMKDDLWSIQNLGTKLATQMRKLTSNLRIGFGAFVDKPVSPYMYISPPEALENPCYDMKTTCLPMFGYKHVLTLTDQVTRFNEEVKKQSVSRNRDAPEGGFDAIMQATVCDEKIGWRNDASHLLVFTTDAKTHIALDGRLAGIVQPNDGQCHVGSDNHYSASTTMDYPSLGLMTEKLSQKNINLIFAVTENVVNLYQNYSELIPGTTVGVLSMDSSNVLQLIVDAYGKIRSKVELEVRDLPEELSLSFNATCLNNEVIPGLKSCMGLKIGDTVSFSIEAKVRGCPQEKEKSFTIKPVGFKDSLIVQVTFDCDCACQAQAEPNSHRCNNGNGTFECGVCRCGPGWLGSQCECSEEDYRPSQQDECSPREGQPVCSQRGECLCGQCVCHSSDFGKITGKYCECDDFSCVRYKGEMCSGHGQCSCGDCLCDSDWTGYYCNCTTRTDTCMSSNGLLCSGRGKCECGSCVCIQPGSYGDTCEKCPTCPDACTFKKECVECKKFDRGALHDENTCNRYCRDEIESVKELKDTGKDAVNCTYKNEDDCVVRFQYYEDSSGKSILYVVEEPECPKGPD
Question: Which Kd [2] does the source give for B1 here?
Answer: The Kd was 0.16 nM.

— publication PMC3518395 (Nature communications, 2012)
